Reference: patent EP2712863B1, “Novel inhibitors of bacterial biofilms and related methods” (Sequoia Sciences, Inc., priority 2012, dated 2014)
Converted amounts (≈) assume the structure as drawn.

Experiments:
[1] = test system: P. aeruginosa; experiment: Biofilm growth assay (spreading biofilm on semi-solid agar); type: cell-based; conditions: Pseudomonas aeruginosa; Table 3; concentration that reduces the area of the spreading biofilm by >= 85%; read-out: P. aeruginosa
Excerpt: (§1) "Biofilm Growth Assay" refers to an assay performed on semi-solid agar surface where the bacteria collectively move out from an inoculation point. To those skilled in the art, the act of bacteria collectively moving out from an inoculation point on a semi-solid surface may be referred to as swarming or a spreading biofilm. (Anderson, et al Microbiology, 2003, 149, 37-46; Daniels, et al. FEMS Microbiology Reviews, 2004, 28, 261-289). The procedure to perform this assay is described in detail in the Examples. This type of surface motility by bacteria has been reported in the literature by those skilled in the art.
(§2) The biofilm growth assay was carried out to measure swarming or biofilm spreading on semi-solid agar media in round plates (for example, 100 × 15 mm), also referred to as Petri dishes. For E. coli, the plates contained LB medium with 0.6% agar and 0.5% glucose. P. aeruginosa plates were made with M8 agar supplemented with 0.2% glucose, 100 µM CaCl2, 1 mM MgSO4, and 0.5% Casamino acids. The agar plates of this assay consisted of 0.4% to 0.7% agar (Bacto or Noble agar), although other media may also be used as described in the literature and known to those skilled in the art. Test compounds at the desired concentration were added to the cooled, autoclaved media. Portions of the media were then poured into the plates (20 mL/plate), and the plates allowed to dry at room temperature for approximately 3 to 4 hours. Alternatively, however, plates may be dried in a laminar flow hood for approximately fifteen to twenty minutes. Overnight cultures were grown in a 37°C shaker in LB (E. coli) or TSB (P. aeruginosa). Plates were inoculated by placing 5 µL of the appropriate overnight culture in the centers of the plates. The plates then were incubated overnight at 37°C. The area of the zone of spreading bacteria was then measured and replicates are averaged. Percent inhibition was calculated as 100 × (area without compound - area with compound)/(area without compound). An active compound was considered that which reduces the area of the spreading biofilm compared to negative controls by greater than or equal to 85%. The values shown in Table 1 are the concentrations of compounds (µg/ml) tested in the biofilm growth assay that reduce the area of the spreading biofilm compared to negative controls by greater than or equal to 85% unless noted differently in Table 1. A > ("greater than" symbol) as used in Table 1 is well understood to those skilled in the art as an indication that the listed concentration was not effective at this concentration.
(§3) All of the compounds shown in Tables 2, 3, 4, and 5, below, were prepared semi-synthetically from oleanolic acid, except for Compounds 2 and 3. Compound 2 was prepared from ursolic acid. Compound 3 was prepared from hederagenin, but could also be prepared from an oleanolic acid analog with a hydroxyl at C23 or C24. These compounds were tested in the spreading biofilm assay according to the methods detailed in Example I, above. The values shown in Tables 2, 3, 4, and 5 are the concentrations of compounds tested in the biofilm growth assay that reduce the area of the spreading biofilm compared to negative controls by greater than or equal to 85%. Table 2. Compound 1 and its Analogs and their inhibitory concentrations in the biofilm growth assay as detailed in Example I, above

[2] = test system: E. coli; experiment: as above; type: cell-based; conditions: Escherichia coli; Table 3; concentration that reduces the area of the spreading biofilm by >= 85%; read-out: E. coli
Excerpt: as §1, §2, §3

Structure (SMILES) | IC85 [1] [µg/mL] | IC85 [2] [µg/mL]
CC1(C)CC[C@]2(C(=O)O)CC[C@]3(C)C(=C(c4cccc(N)c4)CC4[C@@]5(C)Cc6c(n[nH]c6N)C(C)(C)[C@@H]5CC[C@]43C)[C@@H]2C1 (stereo partly drawn) [Compound 15, (4aS,6aS,6bR,8aR,13aR,15bS)-12-Amino-15-(3-aminophenyl)-2,2,6a,6b,9,9,13a-heptamethyl-2,3,4,4a,5,6,6a,6b,7,8,8a,9,11,13,13a,13b,14,15b-octadecahydro-1H-chryseno[1,2-f]indazole-4a-carboxylic acid] | 0.25 (≈ 0.427 µM) | 1 (≈ 1.71 µM)
CC1(C)CC[C@]2(C(=O)O)CC[C@]3(C)C(=C(c4cccc(O)c4)CC4[C@@]5(C)Cc6c(n[nH]c6N)C(C)(C)C5CC[C@]43C)C2C1 (stereo partly drawn) [Compound 16, (4aS,6aS,6bR,13aR)-12-Amino-15-(3-hydroxyphenyl)-2,2,6a,6b,9,9,13a-heptamethyl-2,3,4,4a,5,6,6a,6b,7,8,8a,9,11,13,13a,13b,14,15b-octadecahydro-1H-chryseno[1,2-f]indazole-4a-carboxylic acid] | 1 (≈ 1.71 µM) | 2 (≈ 3.41 µM)
CC1(C)CC[C@]2(C(=O)O)CC[C@]3(C)C(=C(c4cccc(F)c4)CC4[C@@]5(C)Cc6c(n[nH]c6N)C(C)(C)[C@@H]5CC[C@]43C)[C@@H]2C1 (stereo partly drawn) [Compound 17, (4aS,6aS,6bR,8aR,13aR,15bS)-12-Amino-15-(3-fluorophenyl)-2,2,6a,6b,9,9,13a-heptamethyl-2,3,4,4a,5,6,6a,6b,7,8,8a,9,11,13,13a,13b,14,15b-octadecahydro-1H-chryseno[1,2-f]indazole-4a-carboxylic acid] | 0.5 (≈ 0.851 µM) | > 2
CC1(C)CC[C@]2(C(=O)O)CC[C@]3(C)C(=C(c4cccc(CN)c4)CC4[C@@]5(C)Cc6c(n[nH]c6N)C(C)(C)C5CC[C@]43C)C2C1 (stereo partly drawn) [Compound 18, (4aS,6aS,6bR,13aR)-12-Amino-15-(3-(aminomethyl)phenyl)-2,2,6a,6b,9,9,13a-heptamethyl-2,3,4,4a,5,6,6a,6b,7,8,8a,9,11,13,13a,13b,14,15b-octadecahydro-1H-chryseno[1,2-f]indazole-4a-carboxylic acid] | 0.5 (≈ 0.835 µM) | 1 (≈ 1.67 µM)
CC1(C)CC[C@]2(C(=O)O)CC[C@]3(C)C(=C(c4cccc(C(N)=O)c4)CC4[C@@]5(C)Cc6c(n[nH]c6N)C(C)(C)C5CC[C@]43C)C2C1 (stereo partly drawn) [Compound 19, (4aS,6aS,6bR,13aR)-12-Amino-15-(3-carbamoylphenyl)-2,2,6a,6b,9,9,13a-heptamethyl-2,3,4,4a,5,6,6a,6b,7,8,8a,9,11,13,13a,13b,14,15b-octadecahydro-1H-chryseno[1,2-f]indazole-4a-carboxylic acid] | 1 (≈ 1.63 µM) | 1 (≈ 1.63 µM)
Cc1ccc(C2=C3C4CC(C)(C)CC[C@]4(C(=O)O)CC[C@@]3(C)[C@]3(C)CCC4C(C)(C)c5n[nH]c(N)c5C[C@]4(C)C3C2)cc1N (stereo partly drawn) [Compound 20, (4aS,6aS,6bR,13aR)-12-Amino-15-(3-amino-4-methylphenyl)-2,2,6a,6b,9,9,13a-heptamethyl-2,3,4,4a,5,6,6a,6b,7,8,8a,9,11,13,13a,13b,14,15b-octadecahydro-1H-chryseno[1,2-f]indazole-4a-carboxylic acid] | 0.5 (≈ 0.835 µM) | 2 (≈ 3.34 µM)
CN(C)c1cccc(C2=C3C4CC(C)(C)CC[C@]4(C(=O)O)CC[C@@]3(C)[C@]3(C)CCC4C(C)(C)c5n[nH]c(N)c5C[C@]4(C)C3C2)c1 (stereo partly drawn) [Compound 21, (4aS,6aS,6bR,13aR)-12-Amino-15-(3-(dimethylamino)phenyl)-2,2,6a,6b,9,9,13a-heptamethyl-2,3,4,4a,5,6,6a,6b,7,8,8a,9,11,13,13a,13b,14,15b-octadecahydro-1H-chryseno[1,2-f]indazole-4a-carboxylic acid] | 0.5 (≈ 0.816 µM) | > 2
CN(C)c1cc(C2=C3[C@@H]4CC(C)(C)CC[C@]4(C(=O)O)CC[C@@]3(C)[C@]3(C)CC[C@H]4C(C)(C)c5n[nH]c(N)c5C[C@]4(C)C3C2)ccn1 (stereo partly drawn) [Compound 22, (4aS,6aS,6bR,8aR,13aR,15bS)-12-Amino-15-(2-(dimethylamino)pyridin-4-yl)-2,2,6a,6b,9,9,13a-heptamethyl-2,3,4,4a,5,6,6a,6b,7,8,8a,9,11,13,13a,13b,14,15b-octadecahydro-1H-chryseno[1,2-f]indazole-4a-carboxylic acid] | 1 (≈ 1.63 µM) | > 2
CC1(C)CC[C@]2(C(=O)O)CC[C@]3(C)C(=C(c4ccccc4N)CC4[C@@]5(C)Cc6c(n[nH]c6N)C(C)(C)C5CC[C@]43C)C2C1 (stereo partly drawn) [Compound 23, (4aS,6aS,6bR,13aR)-12-Amino-15-(2-aminophenyl)-2,2,6a,6b,9,9,13a-heptamethyl-2,3,4,4a,5,6,6a,6b,7,8,8a,9,11,13,13a,13b,14,15b-octadecahydro-1H-chryseno[1,2-f]indazole-4a-carboxylic acid] | 1 (≈ 1.71 µM) | 2 (≈ 3.42 µM)
CC1(C)CC[C@]2(C(=O)O)CC[C@]3(C)C(=C(Cl)CC4[C@@]5(C)Cc6c(n[nH]c6N)C(C)(C)C5CC[C@]43C)C2C1 (stereo partly drawn) [Compound 24, (4aS,6aS,6bR,13aR)-12-Amino-15-chloro-2,2,6a,6b,9,9,13a-heptamethyl-2,3,4,4a,5,6,6a,6b,7,8,8a,9,11,13,13a,13b,14,15b-octadecahydro-1H-chryseno[1,2-f]indazole-4a-carboxylic acid] | 0.5 (≈ 0.947 µM) | 1 (≈ 1.89 µM)
CC1(C)CC[C@]2(C(=O)O)CC[C@]3(C)C(=C(Br)CC4[C@@]5(C)Cc6c(n[nH]c6N)C(C)(C)[C@@H]5CC[C@]43C)[C@@H]2C1 (stereo partly drawn) [Compound 25, (4aS,6aS,6bR,8aR,13aR,15bR)-12-Amino-15-bromo-2,2,6a,6b,9,9,13a-heptamethyl-2,3,4,4a,5,6,6a,6b,7,8,8a,9,11,13,13a,13b,14,15b-octadecahydro-1H-chryseno[1,2-f]indazole-4a-carboxylic acid] | 0.5 (≈ 0.873 µM) | > 2
CC1(C)CC[C@]2(C(=O)O)CC[C@]3(C)C(=C(c4ccoc4)CC4[C@@]5(C)Cc6c(n[nH]c6N)C(C)(C)[C@@H]5CC[C@]43C)[C@@H]2C1 (stereo partly drawn) [Compound 26, (4aS,6aS,6bR,8aR,13aR,15bS)-12-Amino-15-(furan-3-yl)-2,2,6a,6b,9,9,13a-heptamethyl-2,3,4,4a,5,6,6a,6b,7,8,8a,9,11,13,13a,13b,14,15b-octadecahydro-1H-chryseno[1,2-f]indazole-4a-carboxylic acid] | 0.25 (≈ 0.447 µM) | 1 (≈ 1.79 µM)
CC1(C)CC[C@]2(C(=O)O)CC[C@]3(C)C(=C(c4cn[nH]c4)CC4[C@@]5(C)Cc6c(n[nH]c6N)C(C)(C)[C@@H]5CC[C@]43C)[C@@H]2C1 (stereo partly drawn) [Compound 27, (4aS,6aS,6bR,8aR,13aR,15bS)-12-Amino-2,2,6a,6b,9,9,13a-heptamethyl-15-(1H-pyrazol-4-yl)-2,3,4,4a,5,6,6a,6b,7,8,8a,9,11,13,13a,13b,14,15b-octadecahydro-1 H-chryseno[1,2-f]indazole-4a-carboxylic acid] | 1 (≈ 1.79 µM) | > 2
Cn1cc(C2=C3[C@@H]4CC(C)(C)CC[C@]4(C(=O)O)CC[C@@]3(C)[C@]3(C)CC[C@H]4C(C)(C)c5n[nH]c(N)c5C[C@]4(C)C3C2)cn1 (stereo partly drawn) [Compound 28, (4aS,6aS,6bR,8aR,13aR,15bS)-12-Amino-2,2,6a,6b,9,9,13a-heptamethyl-15-(1-methyl-1H-pyrazol-4-yl)-2,3,4,4a,5,6,6a,6b,7,8,8a,9,11,13,13a,13b,14,15b-octadecahydro-1H-chryseno[1,2-f]indazole-4a-carboxylic acid] | 1 (≈ 1.74 µM) | 2 (≈ 3.49 µM)
CC1(C)CC[C@]2(C(=O)O)CC[C@]3(C)C(=C(c4ccncc4)CC4[C@@]5(C)Cc6c(n[nH]c6N)C(C)(C)[C@@H]5CC[C@]43C)[C@@H]2C1 (stereo partly drawn) [Compound 29, (4aS,6aS,6bR,8aR,13aR,15bS)-12-Amino-2,2,6a,6b,9,9,13a-heptamethyl-15-(pyridin-4-yl)-2,3,4,4a,5,6,6a,6b,7,8,8a,9,11,13,13a,13b,14,15b-octadecahydro-1H-chryseno[1,2-f]indazole-4a-carboxylic acid] | 1 (≈ 1.75 µM) | 1 (≈ 1.75 µM)
